The test system of one experiment is RS4; 11 cells. Nature of the experiment: Cell proliferation assay (MTS), RS4; 11 cells. The class given is cell-based. The settings on record: RS4, 11 (ATCC CRL-1873) cell proliferation, 30000 cells/well, 72 h, MTS, mechanism-based readout of Bcl-2 inhibition, read-out: RS4, 11 IC50. The source says: (§1) MTS testing kit was purchased from Promega. The RPMI-1640, Fetal bovine serum and Penicillin-Streptomycin were purchased from Gibco. Dimethyl sulfoxide (DMSO) was purchased from Sigma.
(§2) To investigate whether a compound is able to inhibit the activity of Bcl-2 in cells, a mechanism-based assay using DOHH2 (DSMZ No.® ACC 47) and RS4; 11 (ATCC® CRL-1873™) cell was developed. In this assay, inhibition of Bcl-2 was detected by the inhibition of DOHH2 and RS4; 11 cells proliferation. DOHH2 and RS4; 11 cells were cultured in culture flasks to 40-80% confluence in RPMI-1640 plus 10% fetal bovine serum. Cells were collected and plated onto 96-well plates at desired cell density (DOHH2: 5000 cells/well; RS4; 11: 30000 cells/well). Plates were incubated overnight at 37° C., with 5% CO2 to adhere. Compounds were added to the plates, and the final compound concentrations were 10000, 3333, 1111, […], 124, 41, 14, 4.6 and 1.5 nM. Plates plated with DOHH2 or RS4; 11 cells were placed at 37° C., with 5% CO2 for 120 h (DOHH2) or 72 h (RS4; 11) respectively. 20 μl MTS/100 μl medium mixture solution were added to each well and incubate the plates for exactly 2 hours. The reaction was stopped by adding 25 μl 10% SDS per well. Measure absorbance at 490 nm and 650 nm (reference wavelength). ICso was calculated using GraphPad Prism 5.0.

For another experiment, the system named is DOHH2 cells. Nature of the experiment: Cell proliferation assay (MTS), DOHH2 cells. In kind it is cell-based. The settings on record: DOHH2 (DSMZ ACC 47) cell proliferation, 5000 cells/well, 120 h, MTS, mechanism-based readout of Bcl-2 inhibition, read-out: DOHH2 IC50.
Excerpt: as §1, §2

Read-outs that look alike come from different tables or passages of the source.

For `CC(C)C(=O)N=S1(=O)CCN(C[C@H](C)Nc2ccc(S(=O)(=O)NC(=O)c3ccc(N4CCN(CC5=C(c6ccc(Cl)cc6)CC(C)(C)CC5)CC4)cc3Oc3cnc4[nH]ccc4c3)cc2[N+](=O)[O-])CC1` [Example 66, (S)-2-((1H-pyrrolo[2,3-b]pyridin-5-yl)oxy)-4-(4-((4′-chloro-5,5-dimethyl-3,4,5,6-tetrahydro-[1,1′-biphenyl]-2-yl)methyl)piperazin-1-yl)-N-((4-((1-(1-(isobutyrylimino)-1-oxido-1λ^6-thiomorpholino)propan-2-yl)amino)-3-nitrophenyl)sulfonyl) benzamide], the IC50 in the experiment with RS4; 11 cells (Homo sapiens, RS4-11, 72 h) was 11 nM; in the experiment on DOHH2 cells (Homo sapiens, DOHH-2, 120 h), 23 nM.
Take `CC1(C)CCC(CN2CCN(c3ccc(C(=O)NS(=O)(=O)c4ccc(NCC5(F)CCC(N=S(C)(C)=O)CC5)c([N+](=O)[O-])c4)c(Oc4cnc5[nH]ccc5c4)c3)CC2)=C(c2ccc(Cl)cc2)C1` (centres unmarked) [Example 58, 2-((1H-pyrrolo[2,3-b]pyridin-5-yl)oxy)-4-(4-((4′-chloro-5,5-dimethyl-3,4,5,6-tetrahydro-[1,1′-biphenyl]-2-yl)methyl)piperazin-1-yl)-N-((4-(((4-((dimethyl(oxo)-λ^6-sulfanylidene)amino)-1-fluorocyclohexyl)methyl)amino)-3-nitrophenyl)sulfonyl)benzamide]: the IC50 in the experiment with RS4; 11 cells (Homo sapiens, RS4-11, 72 h) is 6 nM; in the experiment on DOHH2 cells (Homo sapiens, DOHH-2, 120 h), 16 nM.
Take `C[C@@H](CCN1CCS(=O)(=NC(=O)C2CC2)CC1)Nc1ccc(S(=O)(=O)NC(=O)c2ccc(N3CCN(CC4=C(c5ccc(Cl)cc5)CC(C)(C)CC4)CC3)cc2Oc2cnc3[nH]ccc3c2)cc1[N+](=O)[O-]` [Example 83, (S)-2-((1H-pyrrolo[2,3-b]pyridin-5-yl)oxy)-4-(4-((4′-chloro-5,5-dimethyl-3,4,5,6-tetrahydro-[1,1′-biphenyl]-2-yl)methyl)piperazin-1-yl)-N-((4-((4-(1-((cyclopropanecarbonyl)imino)-1-oxido-1λ^6-thiomorpholino)butan-2-yl)amino)-3-nitrophenyl)sulfonyl)benzamide]: the IC50 came out at 18 nM in the experiment with RS4; 11 cells (Homo sapiens, RS4-11, 72 h) and 47 nM in the experiment on DOHH2 cells (Homo sapiens, DOHH-2, 120 h).
Turning to `CCN=S1(=O)CCN(CC[C@H](C)Nc2ccc(S(=O)(=O)NC(=O)c3ccc(N4CCN(CC5=C(c6ccc(Cl)cc6)CC(C)(C)CC5)CC4)cc3Oc3cnc4[nH]ccc4c3)cc2[N+](=O)[O-])CC1` [Example 78, (S)-2-((1H-pyrrolo[2,3-b]pyridin-5-yl)oxy)-4-(4-((4′-chloro-5,5-dimethyl-3,4,5,6-tetrahydro-[1,1′-biphenyl]-2-yl)methyl)piperazin-1-yl)-N-((4-((4-(1-(ethylimino)-1-oxido-1λ^6-thiomorpholino)butan-2-yl)amino)-3-nitrophenyl)sulfonyl) benzamide], the IC50 was determined as 16 nM in the experiment with RS4; 11 cells (Homo sapiens, RS4-11, 72 h) and 11 nM in the experiment with DOHH2 cells (Homo sapiens, DOHH-2, 120 h).
In the case of `CC(=O)N=S1(=O)CCN(CC[C@H](C)Nc2ccc(S(=O)(=O)NC(=O)c3ccc(N4CCN(CC5=C(c6ccc(Cl)cc6)CC(C)(C)CC5)CC4)cc3Oc3cnc4[nH]ccc4c3)cc2[N+](=O)[O-])CC1` [Example 80], the IC50 with RS4; 11 cells (Homo sapiens, RS4-11, 72 h) came to 47 nM; in the experiment with DOHH2 cells (Homo sapiens, DOHH-2, 120 h), 95 nM.
Consider “2-((1H-pyrrolo[2,3-b] pyridin-5-yl)oxy)-4-(4-((4′- chloro-5,5-dimethyl-3,4,5,6- tetrahydro-[1,1′-biphenyl]-2-yl) methyl)piperazin-1-yl)- N-((4-((2-(4-((dimethyl(oxo)-λ^6- sulfanylidene) amino)piperidin-1-yl)ethyl) amino)-3-nitrophenyl)sulfonyl) benzamide [Example 98]”, for which the IC50 with RS4; 11 cells was found to be 2 nM; with DOHH2 cells, 176 nM.
For `C[C@@H](CN1CCP(C)(=O)CC1)Nc1ccc(S(=O)(=O)NC(=O)c2ccc(N3CCN(CC4=C(c5ccc(Cl)cc5)CC(C)(C)CC4)CC3)cc2Oc2cnc3[nH]ccc3c2)cc1[N+](=O)[O-]` [Example 17, (S)-2-((1H-pyrrolo[2,3-b]pyridin-5-yl)oxy)-4-(4-((4′-chloro-5,5-dimethyl-3,4,5,6-tetrahydro-[1,1′-biphenyl]-2-yl)methyl)piperazin-1-yl)-N-((4-((1-(4-methyl-4-oxido-1,4-azaphosphinan-1-yl)propan-2-yl)amino)-3-nitrophenyl)sulfonyl)benzamide], the IC50 in the experiment with RS4; 11 cells (Homo sapiens, RS4-11, 72 h) was found to be 111 nM; in the experiment on DOHH2 cells (Homo sapiens, DOHH-2, 120 h) it was 132 nM.
In the same order, the values of `CC1(C)CCC(CN2CCN(c3ccc(C(=O)NS(=O)(=O)c4ccc(NCC5CCC(N=S(C)(C)=O)CO5)c([N+](=O)[O-])c4)c(Oc4cnc5[nH]ccc5c4)c3)CC2)=C(c2ccc(Cl)cc2)C1` (centres unmarked) [Example 57, 2-((1H-pyrrolo[2,3-b]pyridin-5-yl)oxy)-4-(4-((4′-chloro-5,5-dimethyl-3,4,5,6-tetrahydro-[1,1′-biphenyl]-2-yl)methyl)piperazin-1-yl)-N-((4-(((5-((dimethyl(oxo)-λ^6-sulfanylidene)amino)tetrahydro-2H-pyran-2-yl)methyl)amino)-3-nitrophenyl)sulfonyl)benzamide] are 20 nM and 30 nM.
For `C[C@@H](CCN1CCS(=O)(=NC2CC2)CC1)Nc1ccc(S(=O)(=O)NC(=O)c2ccc(N3CCN(CC4=C(c5ccc(Cl)cc5)CC(C)(C)CC4)CC3)cc2Oc2cnc3[nH]ccc3c2)cc1[N+](=O)[O-]` [Example 79, (S)-2-((1H-pyrrolo[2,3-b]pyridin-5-yl)oxy)-4-(4-((4′-chloro-5,5-dimethyl-3,4,5,6-tetrahydro-[1,1′-biphenyl]-2-yl)methyl)piperazin-1-yl)-N-((4-((4-(1-(cyclopropylimino)-1-oxido-1λ^6-thiomorpholino)butan-2-yl)amino)-3-nitrophenyl)sulfonyl)benzamide] the same measures were 14 nM and 11 nM.
With `CCOC(=O)N=S1(=O)CCN(C[C@H](C)Nc2ccc(S(=O)(=O)NC(=O)c3ccc(N4CCN(CC5=C(c6ccc(Cl)cc6)CC(C)(C)CC5)CC4)cc3Oc3cnc4[nH]ccc4c3)cc2[N+](=O)[O-])CC1` [Example 72, ethyl (S)-(4-(2-((4-(N-(2-((1H-pyrrolo[2,3-b]pyridin-5-yl)oxy)-4-(4-((4′-chloro-5,5-dimethyl-3,4,5,6-tetrahydro-[1,1′-biphenyl]-2-yl)methyl)piperazin-1-yl)benzoyl)sulfamoyl)-2-nitrophenyl)amino)propyl)-1-oxido-1λ^6-thiomorpholin-1-ylidene) carbamate], the IC50 in the experiment on RS4; 11 cells (Homo sapiens, RS4-11, 72 h) turned out to be 68 nM; in the experiment on DOHH2 cells (Homo sapiens, DOHH-2, 120 h), 119 nM.
In the same order, the values of `CCOC(=O)N=S1(=O)CCN(CC[C@H](C)Nc2ccc(S(=O)(=O)NC(=O)c3ccc(N4CCN(CC5=C(c6ccc(Cl)cc6)CC(C)(C)CC5)CC4)cc3Oc3cnc4[nH]ccc4c3)cc2[N+](=O)[O-])CC1` [Example 85, ethyl (S)-(4-(3-((4-(N-(2-((1H-pyrrolo[2,3-b]pyridin-5-yl)oxy)-4-(4-((4′-chloro-5,5-dimethyl-3,4,5,6-tetrahydro-[1,1′-biphenyl]-2-yl)methyl)piperazin-1-yl)benzoyl)sulfamoyl)-2-nitrophenyl)amino)butyl)-1-oxido-1λ^6-thiomorpholin-1-ylidene) carbamate] are 36 nM and 30 nM.
For `C[C@@H](CCN1CCC(N=S(C)(C)=O)CC1)Nc1ccc(S(=O)(=O)NC(=O)c2ccc(N3CCN(CC4=C(c5ccc(Cl)cc5)CC(C)(C)CC4)CC3)cc2Oc2cnc3[nH]ccc3c2)cc1[N+](=O)[O-]` [Example 96, (S)-2-((1H-pyrrolo[2,3-b]pyridin-5-yl)oxy)-4-(4-((4′-chloro-5,5-dimethyl-3,4,5,6-tetrahydro-[1,1′-biphenyl]-2-yl)methyl)piperazin-1-yl)-N-((4-((4-(4-((dimethyl(oxo)-λ^6-sulfanylidene)amino)piperidin-1-yl)butan-2-yl)amino)-3-nitrophenyl)sulfonyl) benzamide], the IC50 is 20 nM in the experiment with RS4; 11 cells (Homo sapiens, RS4-11, 72 h) and 26 nM with DOHH2 cells (Homo sapiens, DOHH-2, 120 h).
For `COC(=O)N=S1(=O)CCN(CCNc2ccc(S(=O)(=O)NC(=O)c3ccc(N4CCN(CC5=C(c6ccc(Cl)cc6)CC(C)(C)CC5)CC4)cc3Oc3cnc4[nH]ccc4c3)cc2[N+](=O)[O-])CC1` [Example 43, methyl (4-(2-((4-(N-(2-((1H-pyrrolo[2,3-b]pyridin-5-yl)oxy)-4-(4-((4′-chloro-5,5-dimethyl-3,4,5,6-tetrahydro-[1,1′-biphenyl]-2-yl)methyl)piperazin-1-yl)benzoyl)sulfamoyl)-2-nitrophenyl)amino)ethyl)-1-oxido-1λ^6-thiomorpholin-1-ylidene) carbamate] the same measures were 102 nM and 271 nM.

Source of the values: patent US11053239B2, “Compounds as BLC-2-selective apoptosis-inducing agents” (Fochon Pharmaceuticals, Ltd., priority 2017, dated 2021).
